Values belong to the molecule of their own block, whether it stands above or below them.
Columns and labels:
[1] = system: fructose-1,6-bisphosphatase 1 (FBP1); set-up: method as in PMID 33114319; details: HepG2 cells; cited from earlier work
HNF4α [2] = molecular target: HNF4α; set-up: method as in PMID 33114319; details: ITC; cited from earlier work
HNF4α [3] = system: HNF4α; set-up: method as in PMID 33114319; details: reporter gene assay; cited from earlier work
nuclear receptors = experiment: Selectivity profiling in Gal4-hybrid reporter gene assay panel; type: cell-based, human; details: at active concentration
Method: Compounds were tested at concentrations around EC90 according to the literature or at the highest nontoxic concentration (from the multiplex toxicity assay). […] (b) Selectivity profiling of NR2 modulators in a representative panel of nuclear receptors outside the NR2 family. […] Effects <5% of the respective reference ligands were considered as not relevant and omitted. Only effects are shown that are statistically significant against VP16 ctrl (Figure S3); n = 3.
HEK293T cells (German Collection of Microorganisms and Cell Culture GmbH, DSMZ) were cultured in Dulbecco’s modified Eagle’s medium (DMEM), high glucose supplemented with 10% fetal calf serum (FCS), sodium pyruvate (1 mM), penicillin (100 U/mL), and streptomycin (100 μg/mL) at 37 °C and 5% CO2 and seeded in 96-well plates (3 × 10^4 cells/well). The medium was changed to Opti-MEM without supplements, and the cells were transiently transfected with one pFA-CMV-hNR-LBD clone, pFR-Luc, and pRL-SV40 using Lipofectamine LTX reagent (Invitrogen, Thermo Fisher Scientific) according to the manufacturer’s instructions. Five hours after transfection, cells were incubated with the test compounds in Opti-MEM supplemented with penicillin (100 U/mL), streptomycin (100 μg/mL), and 0.1% DMSO. Each sample was set up in duplicates and tested in at least three independent experiments. After 16 h incubation, luciferase activity was measured using the Dual-Glo Luciferase Assay System (Promega) according to the manufacturer’s protocol on a Tecan Spark luminometer (Tecan Deutschland GmbH, Crailsheim, Germany). Firefly luminescence was divided by Renilla luminescence and multiplied by 1000 resulting in relative light units (RLUs) to normalize for transfection efficiency and cell growth. Fold activation was obtained by dividing the mean RLU of the test compound by the mean^a RLU of the untreated control, and relative activation was calculated by dividing the fold activation of a test sample by the fold activation of the respective reference agonist. Antagonistic effects were evaluated by coincubation of the test compound with the respective reference ligand.

MBP-NR2E1-LBD = system: MBP-NR2E1-LBD; set-up: method as in PMID 35508617; details: MS-based binding experiment; cited from earlier work
ATF6 = ATF6 activity assay; type: cell-based; details: tunicamycin treated Hela ATF6 reporter cells
Text: Next, we evaluated the potential impact of the NR2 modulator set on endoplasmic reticulum (ER) stress in an ATF6 activity assay (Fig. 4b). The activating transcription factor 6 (ATF6) participates in the unfolded protein response and is activated under ER stress.[164] Tunicamycin-induced ATF6 activity was not affected by RXR and TLX modulators but was reduced by the inverse PNR agonists 22 and 23.
Hela cells containing a Renilla luciferase reporter gene for ATF6 activity (ATF6 Leeporter™ Luciferase Reporter-HeLa Cell Line, Abeomics Inc.; #14-138ACL) were cultured in DMEM supplemented with 10% heat-inactivated FCS, penicillin (100 U/mL), streptomycin (100 μg/mL) and puromycin (3 µg/mL) at 37°C and 5% (v/v) CO2 and seeded in 96-well plates (1 × 10^5 per well). After 24 h, the cells were incubated with the test compounds solubilized with 0.1% DMSO in the same medium without puromycin. After 4 h of incubation, tunicamycin (100 ng/mL) was added. After another 18 h of incubation, cells were assayed for renilla luminescence using DualGlo reagent (Promega) on a Tecan SPARK Cyto (Tecan). Test samples were normalized to the 0.1% DMSO control.

[4] = molecular target: PNR mutations associated with Enhanced S-Cone Syndrome (ESCS); set-up: method as in PMID 35508617; details: cited from earlier work
PNR = system: PNR; set-up: method as in PMID 35508617; details: cited from earlier work
PNR protein levels = system: PNR protein levels; set-up: method as in PMID 35508617, PMID 19379737; details: retinoblastoma cells, 1 µM, Western blot; cited from earlier work
MBP-PNR-LBD = molecular target: MBP-PNR-LBD; set-up: method as in PMID 35508617; details: determined by UV absorption; cited from earlier work
COS-7 cells = experiment: Multiplex toxicity assay; type: cell-based; details: 24 h, at active concentration
Method: COS-7 cells (DSMZ #ACC 60) were cultured at 37°C and 5% CO2 in DMEM high glucose medium supplemented with sodium pyruvate (1 mM), penicillin (100 U/mL), streptomycin (100 µg/mL), and 10% fetal calf serum (FCS). After aspirating the wells, the cells were seeded at 1x10^5 cells per well in complete culture medium. […] Each sample was prepared in at least 4 biologically independent replicates. After incubation for 24 h, the wells were aspirated and incubated for 30 min with stimulation medium containing 1 µM NucView® 405 fluorogenic caspase-3 substrate (#10405, Biotium, Fremont, USA) and Live-or-Dye Nuc-Fix Red (0.05x, Biotium, Inc., Fremont, CA, 1691 USA) to detect apoptosis and necrosis, respectively. After incubation, a total of 6 fluorescence images per well at 10x magnification were taken to detect NucView®-positive (Ex: 381–400 nm, Em: 414–450 nm) and Live-or-Dye-positive cells (Ex: 543−566 nm, Em: 580−611 nm) using on a Tecan Spark Cyto (Tecan Group AG). Reference readings for background correction and detection of auto-fluorescence were taken at 414–450 nm prior to staining. Thereafter, wells were aspirated, the cells were incubated for 3 h with 90 µL culture medium (0.2% FCS) and 10 µL Cell Counting Kit-8 solution (CCK-8, MedChem Express #HY-K0301), and absorbance was measured at 1, 2, and 3h of incubation at 450 nm on a Tecan Spark Cyto to assess metabolic activity of the cells. Before drug administration, after the first medium exchange, 24 h after drug administration, and after fluorescence imaging cell confluence was assessed using the Tecan Spark Cyto, to account for changes in cell confluence due to drug administration and cell handling. The number of apoptotic cells, metabolic activity, and changes in cell confluence in response to drug treatment were all normalized to the vehicle control of each biological replicate individually.

SMILES: OC(c1ccc(F)cc1)c1ccc(F)cc1 [compound 5]
expression of HNF4 target gene FBP1 [1]: diminished expression | Kd (HNF4α [2]): 1700 nM | IC50 (HNF4α [3]): 24 µM

selectivity over other nuclear receptors (nuclear receptors): Favorable selectivity profiles
SMILES: C=CC1=C(C)/C(=C/C2=NC(=C\c3[nH]c(/C=C4\NC(=O)C(C)=C4C=C)c(C)c3CCC(=O)O)/C(CCC(=O)O)=C2C)NC1=O [compound 25, biliverdin]
interaction with MBP-NR2E1-LBD (TLX) (MBP-NR2E1-LBD): no interaction | tunicamycin-induced ATF6 activity (ATF6): slightly diminished | Kd [4]: 9 µM | PNR activation (PNR; reporter gene assay in 293F cells): approximately 3 fold | EC50 (PNR; reporter gene assay): 5 nM | PNR protein levels (PNR protein levels): two-fold increase | Kd (MBP-PNR-LBD): 200 nM | cytotoxicity (COS-7 cells): lack of cytotoxicity
